Experiment [1] has as its system HCT-116. The experiment in a line: Cytotoxicity against human HCT-116 cells assessed as growth inhibition measured after 48 hrs by CCK-8 assay. The format is functional.
The test system of experiment [2] is HCT-116. The experiment in a line: Antiproliferative activity against human HCT116 cells assessed as inhibition of proliferation measured after 24 hrs by CCK-8 assay. The format is functional, cell-based. The note with it: HCT-116, 24 h.
Experiment [3] deals with HCT-116. The experiment in a line: Anti-tumor activity against human HCT-116 cells xenografted in BALB/c mouse assessed as inhibition of tumor growth at 7 mg/kg, ip thrice a week for three weeks. The format is functional, organism-based. Particulars: time 3.0 weeks.

Active and inactive are the calls of the source. No cut-off for these calls is given here.

On to `COc1cc(C(=O)/C(C)=C/c2c[nH]c3ccc([N+](=O)[O-])cc23)cc(OC)c1OC`, for which, in the experiment with HCT-116 [1], the GI50 was 74 nM.
On the same count and under the same terms, for `COc1cc(C(=O)/C(C)=C/c2c[nH]c3cccnc23)cc(OC)c1OC` the value was 59 nM; for `COc1cc(C(=O)/C(C)=C/c2c[nH]c3ccccc23)cc2c1OCO2`, 61 nM.
Take `CC(=O)O[C@H]1C(=O)[C@@]2(C)[C@H]([C@H](OC(=O)c3ccccc3)[C@]3(O)C[C@H](OC(=O)[C@H](O)[C@@H](NC(=O)c4ccccc4)c4ccccc4)C(C)=C1C3(C)C)[C@]1(OC(C)=O)CO[C@@H]1C[C@@H]2O` [PACLITAXEL]: the half-inhibitory concentration (IC50) with HCT-116 [2] was 24 nM. In the experiment with HCT-116 [3], the result was Active.
Regarding `COc1cc(C(=O)/C(C)=C/c2c[nH]c3ccc(C)cc23)cc(OC)c1OC`, the GI50 in the experiment on HCT-116 [1] came to 71 nM.
For `COc1cc(C(=O)/C(C)=C/c2c[nH]c3ccc(Br)cc23)cc(OC)c1OC`, the concentration for 50% growth inhibition (GI50) in the experiment on HCT-116 [1] is > 8000 nM.
Still for that read-out and setting: for `COc1cc(C(=O)/C(C)=C/c2c[nH]c3cc(C(=O)O)ccc23)cc(OC)c1OC` the value was > 10000 nM; for `COc1cc(C(=O)/C(C)=C/c2c[nH]c3ncccc23)cc(OC)c1OC`, 49 nM; for `COc1cc(C(=O)/C(C)=C/c2cnc3ccccn23)cc(OC)c1OC`, 71 nM.
As for `COc1cc(C(=O)/C(C)=C/c2c[nH]c3c(C)cccc23)cc(OC)c1OC`, the concentration for 50% growth inhibition (GI50) with HCT-116 [1] worked out at 107 nM.
On the same count and under the same terms, the same measure for `COc1cc(C(=O)/C(C)=C/c2c[nH]c3cccc(C)c23)cc(OC)c1OC`: 602 nM.
For `CC/C(=C\c1c[nH]c2ccccc12)C(=O)c1cc(OC)c(OC)c(OC)c1`, in the experiment with HCT-116 [1], the GI50 is 43 nM.
The same measure, in the same setting: the same measure for `COc1cc(C(=O)/C(C)=C/c2c[nH]c3c([N+](=O)[O-])cccc23)cc(OC)c1OC`: 91 nM; for `COc1cc(C(=O)/C(C)=C/c2c[nH]c3ccncc23)cc(OC)c1OC`: 1080 nM; for `COc1ccc2c(/C=C(\C)C(=O)c3cc(OC)c(OC)c(OC)c3)c[nH]c2c1`: 74 nM.
Still for that read-out and setting: the same measure for `COc1cc(C(=O)/C(C)=C/c2csc3ccccc23)cc(OC)c1OC`: 200 nM; for `COc1cc(C(=O)/C(C)=C/c2c[nH]c3ccc(F)cc23)cc(OC)c1OC`: 29 nM.
Same read-out and setting: for `COc1cc(C(=O)/C(C)=C/c2c[nH]c3cc([N+](=O)[O-])ccc23)cc(OC)c1OC` the value was 76 nM; for `COc1cc(C(=O)/C(C)=C/c2c[nH]c3ccccc23)cc(OC)c1OC`, 0.99 nM; for `COc1cc(C(=O)/C(C)=C/c2c[nH]c3cnccc23)cc(OC)c1OC`, 821 nM.
Take `COc1cc(C(=O)/C(C)=C/c2c[nH]c3cc(C)ccc23)cc(OC)c1OC`: in the experiment with HCT-116 [1], the GI50 was 46 nM.
Regarding `O=C(/C=C/c1c[nH]c2ccccc12)c1ccccc1`, the GI50 with HCT-116 [1] is > 10000 nM.
Same read-out and setting: for `COc1ccc(C(=O)/C(C)=C/c2c[nH]c3ccccc23)cc1OC` the value was 74 nM; for `C/C(=C\c1c[nH]c2ccccc12)C(=O)c1ccccc1`, > 15000 nM.
On to `COc1cccc2c1CC/C(=C\c1c[nH]c3ccccc13)C2=O`, for which the GI50 in the experiment on HCT-116 [1] was > 10000 nM.
Consider `COc1ccc(/C=C\c2cc(OC)c(OC)c(OC)c2)cc1O` [COMBRETASTATIN A4], for which the IC50 in the experiment on HCT-116 [2] was 15.8 nM.
With `COc1cc(C(=O)/C(C)=C/c2c[nH]c3ccc(Cl)cc23)cc(OC)c1OC`, in the experiment on HCT-116 [1], the GI50 was 70 nM.
Still for that read-out and setting: the same measure for `COc1cc(C(=O)/C(C)=C/c2c[nH]c3cc(N)ccc23)cc(OC)c1OC`: 69 nM.
On the same count and under the same terms, for `COc1cc(OC)cc(C(=O)/C(C)=C/c2c[nH]c3ccccc23)c1` the value was 65 nM; for `COc1cc(C(=O)/C(C)=C/c2cnn3ccccc23)cc(OC)c1OC`, 79 nM.
`COc1cncc(C(=O)/C(C)=C/c2c[nH]c3ccccc23)c1`: the GI50 in the experiment with HCT-116 [1] was found to be 240 nM.
The same measure, in the same setting: for `COC(=O)c1ccc2c(/C=C(\C)C(=O)c3cc(OC)c(OC)c(OC)c3)c[nH]c2c1` the value was 536 nM.
Still for that read-out and setting: the same measure for `COc1cccc(C(=O)/C(C)=C/c2c[nH]c3ccccc23)c1`: 348 nM.
